Patent publication US20230414771A1, “PREPARATION AND USE OF IMMUNOSTIMULATORY CONJUGATED COMPLEXES FOR TARGETED DELIVERY AND ACTIVATION” (YAFEI SHANGHAI BIOLOGY MEDICINE SCIENCE & TECHNOLOGY CO., …, priority 2020, published 2023)
Where a SMILES comes first, the peptide text is derived from it. The star is where a group is joined. Doxorubicin(3'-N) = COc1cccc2c1C(=O)c1c(O)c3c(c(O)c1C2=O)C[C@@](O)(C(=O)CO)C[C@@H]3O[C@H]1C[C@H](N*)[C@H](O)[C@H](C)O1; Hexanoyl(6-maleimido) = O=C1C=CC(=O)N1CCCCCC(=O)*

Columns and labels:
CT26 tumor = CT26 tumor immune model, tumor suppression and CD8+ T cell analysis; type: in vivo, BALB/c mice
Description: • 1) CT26 cells were purchased from ATCC. […] The corresponding 5×10^6 cells were injected subcutaneously into the back of […] mice. After the size of tumors reached at least 100 mm^3, the mice were randomized into groups. Treatment was then initiated, with the day of treatment initiation being Day 1. • 3) The course of treatment. The drug was administered at an equimolar dose of 36 umol/kg. The control group was given normal saline. The drug was administered once a week for three week. • 4) Tumor CD8+ T cell analysis. Tumor tissue was homogenized, individual cells in the tumor were filtered, dissociated and washed twice with buffer, and then incubated with leukocyte common antigen CD45-PE and CD8-FITC-labeled antibodies for 1 hour at room temperature. The cells were washed twice with phosphate buffered saline containing 1% fetal bovine serum, and then the proportion of T lymphocyte antigen (CD8)-positive cells in leukocyte common antigen (CD45)-positive cells was analyzed by flow cytometry. An increase in the ratio indicates an increase in T lymphocytes and therefore an improvement in the immunity of the animal to the tumor. • 5) The grouping and test results are shown in Table 7.

[1] = tested on: Human colon cancer HT-29 tumor tissue homogenate; experiment: Activation in HT-29 tumor tissue homogenate; type: biochemical; details: HT-29 homogenate pH 6.0, 37° C., 1 mg/ml
Description: In the experiments of the present disclosure, 1 mg/ml of the sample compound was added to 100 μg of acidified tumor tissue homogenate (pH 6.0) at 37° C. The enzyme in the tumor tissue homogenate can cause the release of doxorubicin, and the reduction of compound and the increase of doxorubicin could be detected by HPLC to compare the activation efficiency of the drug in the tumor tissue.

[2] = 0.5 mg/ml, pH 5.5
Description: Add 0.5 ml of sterile water for injection to prepare a 10 mg/ml mother solution. […] Take 30 ul of the mother solution, add 570 ul of buffer solutions with different pH values of 5.5, and prepare a 0.5 mg/ml sample solution. After the sample was clarified, it was placed in a 25° C./37° C. water bath, and after 8 hours, the sample was sampled by HPLC and electrophoresis to detect the content of the sample relative to 0 hours, and the solution stability data of different compounds could be obtained.

[3] = tested on: acidified human breast cancer (MDA-MB435) tumor tissue homogenate; experiment: Activation efficiency of S-C-A linkers in tumor tissue homogenate, HPLC; type: biochemical; details: Table 2-1; C is AAN; 1 mg/ml, homogenate pH 6.0, 37° C.
Description: When C is AAN, the activation of the different S-C-A linkers and the control linker is evaluated in an activation assay. They were dissolved and diluted tenfold using S-C-A conjugates to a concentration of 0.1 mM/ml. The sample compounds were added at a concentration of 1 mg/ml to 100 μg of acidified human breast cancer (MDA—MB435) tumor tissue homogenate (pH 6.0) at 37° C. The enzyme in the tumor tissue homogenate was released and detected by HPLC to compare the efficiency of activation of the linker by the tumor tissue.
The effect of the D-type tripeptide on the activation efficiency was examined in comparison to the native peptide sequence linker cleaved by Legumain, S1 in MI-S is —CH2CH2—CONH—, S2: 2 peg.

M2 macrophages = experiment: MTT cytotoxicity on M2 macrophages; type: cell-based, C57BL/6 mice; details: 48 hours, relative to C3
Description: The bilateral femur and tibiae of two C57BL/6 mice were taken out under aseptic conditions, and that metaphysis was cut off in a super-clean table. the marrow cavity was gently washed with serum-free MEM culture solution by a 5 mL sterile syringe for 4 times, and all cell suspensions were collect; Centrifuge at 1000 r/min for 10 min, discard the supernatant to obtain the cell precipitate, resuspend with an appropriate volume of serum-free MEM culture medium, repeatedly blow and homogenize, filter with a 40 uM filter screen, add 3 times the volume of erythrocyte lysate, and lyse on ice for 10 min; Centrifuge at 1000 r/min for 5 min, discard the supernatant to obtain the cell precipitate, wash with serum-free MEM culture medium for 2 times, and collect the cell precipitate; Resuspend the cells with MEM complete culture medium containing 10% FBS and 1% PS in volume fraction, and count the cells for subsequent differentiation; 100 uL, 20000 cells/well were inoculated into 96-well cell culture plate, 100 ng M-CSF was added into the culture medium for differentiation of M2 macrophages, and the cells were statically cultured at 37° C. in 5% C02 incubator, and induced to differentiate for 7 days, and the cell morphology was observed. […]
The cell survival rate and the 50% inhibitory concentration of the drug on the cells were calculated. […]

[4] = drug 36 umol/kg once a week for three weeks, PD-1 antibody 5 mg/kg

Which “CD8:CD45 (%)” value (CT26 tumor; CD8-positive among CD45-positive cells in tumor, flow cytometry) does the source give for `COc1cccc2c1C(=O)c1c(O)c3c(c(O)c1C2=O)C[C@@](O)(C(=O)CO)C[C@@H]3O[C@H]1C[C@H](NC(=O)[C@H](CC(C)C)NC(=O)[C@H](CC(N)=O)NC(=O)[C@H](C)NC(=O)[C@H](C)NC(=O)CCCCCN2C(=O)C=CC2=O)[C@H](O)[C@H](C)O1` [EMC-AANL-DOX] ({Hexanoyl(6-maleimido)}-AANL-{Doxorubicin(3'-N)}) here?
Its value is 8.9%.

What about the “therapeutic effect combined with PD-1, in words” value (CT26 tumor; combined with PD-1 versus single drug) of the same molecule?
The value was “improved compared with single drug”.

What about the “Tumor inhibition rate (%) Day 28” value (CT26 tumor; [4]) of the same molecule?
Its value is 66.9%.

And the “Tumor volume (mm^3) Day 28” value (CT26 tumor; [4])?
The value was 624.5 ± 313.6 mm^3.

And the “Compound activation ratios (%)” value [1]?
Its value is 49.4%.

And the “Stability data of the solution, 8 hr (content relative to 0 hours)” value [2]?
Its value is 94.3%.

And the “Activation efficiency (%)” value [3]?
The value was 56.4%.

Which “cytotoxicity against M2 macrophages (FIG. 6)” value (M2 macrophages) does the source give for `COc1cccc2c1C(=O)c1c(O)c3c(c(O)c1C2=O)C[C@@](O)(C(=O)CO)C[C@@H]3O[C@H]1C[C@H](NC(=O)[C@H](CC(C)C)NC(=O)[C@H](CC(N)=O)NC(=O)[C@H](C)NC(=O)[C@H](C)NC(=O)CCOCCOCCNC(=O)CCN2C(=O)C=CC2=O)[C@H](O)[C@H](C)O1` [QHL-087-DOX] here?
The value was “significantly improved cytotoxicity against M2 macrophages”.
